Laboratory results reported in patent US5306808A, “Peptide derivatives having vasodilating activity” (Takeda Chemical Industries, Ltd., priority 1991, dated 1994).
Where a SMILES comes first, the peptide text is derived from it. Bridges are numbered along the chain shown (N, C = ends). [ ]: non-standard residue; d: D form. tBuAla = CC(C)(C)C[C@H](N)C(=O)O; Nva = CCC[C@H](N)C(=O)O; Abu = CC[C@H](N)C(=O)O

Experiments:
endothelin receptor = assay: Assay of affinity for receptor (I125-ET-1 binding to porcine myocardial membrane fraction); details: ET-1 = 100
Experimental: A membrane fraction prepared from the porcine heart was diluted to 0.15 mg/ml by using a buffer solution [PBS (pH 7.4) containing 0.5 mM CaCl2, 1.0 mM MgCl2, 0.02% NaN3, 0.1% BSA (fraction V, Sigma), 0.1 mM PMSF and 0.1 μg/ml pepstatin (binding buffer)] for assay, and 100 μl of the resulting suspension of the membrane fraction was poured into each assay tube to use for assay. To this suspension of the membrane fraction were added 2 μl of an endothelin-1 solution labeled with 5 μM radioactive iodine. Further, 3 μl of a test peptide solution was added thereto, followed by maintenance at a temperature of 25° C. for 1 hour. Then, the resulting suspension was diluted with 900 μl of the buffer solution for assay cooled with ice, and thereafter separated into a supernatant and a precipitate by centrifugation at 12,000×g for 10 minutes. Cell membranes and an endothelin receptor embedded therein were contained in the precipitate, and radioactive iodine-labeled endothelin combined with the receptor was also recovered in the precipitate. Accordingly, the amount of radioactive iodine-labeled endothelin combined with the endothelin receptor was determined by measuring the amount of radioactive iodine contained in the precipitate with a gamma-ray counter. Compounds in which the affinity for the endothelin receptor is high and the maximum constriction is not high are antagonists. Contrary to this, compounds in which the affinity for the endothelin receptor is high and the maximum constriction is high are agonists.

porcine coronary artery = assay type: cell-based; details: for Constrictor activity (Relative potency): ET-1 = 100; for Maximum Constriction (% 60 mM KCl): normalized to constriction response to 60 mM KCl
Experimental: Each of helical strips 2 mm×15 mm prepared from the coronary right ramus circumflexus from which the adventitial connective tissues and the endothelial cells were removed was set to each of 4 ml organ baths. Its tension was detected by a force displacement transducer UL-10GR (Minebea), and recorded by a polygraph (NEC Sanei). The organ baths were maintained at 37° C., and filled with a Krebs-Henseleit solution (composition:118 mM NaCl, 4.7 mM KCl, 2.5 mM CaCl2, 1.2 mM KH2 PO4, 25.0 mM NaHCO3, 1.2 mM MgSO4, 10.0 mM glucose) gassed with 95% O2 and 5% CO2.
A tension of 1.25 to 1.5 g was applied to each of the strips, followed by equilibration for 1.5 hours. 60 mM KCl was repeatedly applied thereto at intervals of 30 minutes until the constriction response became constant. After additional equilibration for 1.5 hours, a sample for assay was given. The constriction of the strips was normalized by the constriction response of the individual strips to 60 mM KCl and statistically processed.
(2) As to the antagonist property or the agonist property of the peptide derivatives of present invention to endothelin, the affinity for an endothelin receptor and the constrictor activity to porcine coronary smooth muscles (according to the method described in (1) described above) were assayed. The affinity for the receptor was assayed by the following method.

SMILES	Receptor binding activity (Relative potency) (endothelin receptor)	Constrictor activity (Relative potency) (porcine coronary artery)	Maximum Constriction (% 60 mM KCl) (porcine coronary artery)
CC[C@H](C)[C@H](NC(=O)[C@H](CC(=O)O)NC(=O)[C@H](CC(C)C)NC(=O)[C@H](Cc1c[nH]cn1)NC(=O)[C@@H]1CSSC[C@H](N)C(=O)N[C@@H](CO)C(=O)N[C@@H](CC(C)C)C(=O)N[C@@H](CO)C(=O)N[C@@H](CO)C(=O)N[C@@H](CC(C)C)C(=O)N[C@@H](CCSC)C(=O)N[C@@H](CC(=O)O)C(=O)N[C@@H](CCCCN)C(=O)N[C@@H](CCC(=O)O)C(=O)N[C@@H](CC(C)C)C(=O)N[C@@H](C(C)C)C(=O)N[C@@H](Cc2ccc(O)cc2)C(=O)N[C@@H](Cc2ccccc2)C(=O)N1)C(=O)N[C@H](C(=O)N[C@@H](Cc1c[nH]c2ccccc12)C(=O)O)[C@@H](C)CC [Example 38, [Leu^3,11]-ET-1] (H-CSLSSLMDKELVYFCHLDIIW-OH; disulfide 1-15)	0.1	< 0.1	10
CC[C@H](C)[C@H](NC(=O)[C@H](CC(=O)O)NC(=O)[C@H](CC(C)C)NC(=O)[C@H](Cc1c[nH]cn1)NC(=O)[C@@H]1CSSC[C@H](N)C(=O)N[C@@H](CO)C(=O)N[C@@H](C(C)C)C(=O)N[C@@H](CO)C(=O)N[C@@H](CO)C(=O)N[C@@H](CC(C)C)C(=O)N[C@@H](CCSC)C(=O)N[C@@H](CC(=O)O)C(=O)N[C@@H](CCCCN)C(=O)N[C@@H](CCC(=O)O)C(=O)N[C@@H](C(C)C)C(=O)N[C@@H](C(C)C)C(=O)N[C@@H](Cc2ccc(O)cc2)C(=O)N[C@@H](Cc2ccccc2)C(=O)N1)C(=O)N[C@H](C(=O)N[C@@H](Cc1c[nH]c2ccccc12)C(=O)O)[C@@H](C)CC [Example 39, [Val^3,11]-ET-1] (H-CSVSSLMDKEVVYFCHLDIIW-OH; disulfide 1-15)	0.59	< 0.1	34
CC[C@H](C)[C@H](NC(=O)[C@H](CC(C)C)NC(=O)[C@H](Cc1c[nH]cn1)NC(=O)[C@@H]1CSSC[C@H](N)C(=O)N[C@@H](CO)C(=O)N[C@H]2CSSC[C@H](NC(=O)[C@H](CCC(=O)O)NC(=O)[C@H](CCCCN)NC(=O)[C@H](CC(=O)O)NC(=O)[C@H](CCSC)NC(=O)[C@H](CC(C)C)NC(=O)[C@H](CO)NC(=O)[C@H](CO)NC2=O)C(=O)N[C@@H](C(C)C)C(=O)N[C@@H](Cc2ccc(O)cc2)C(=O)N[C@@H](Cc2ccccc2)C(=O)N1)C(=O)N[C@H](C(=O)N[C@H](C(=O)N[C@@H](Cc1c[nH]c2ccccc12)C(=O)O)[C@@H](C)CC)[C@@H](C)CC [Example 43, [Ile^18]-ET-1] (H-CSCSSLMDKECVYFCHLIIIW-OH; disulfide 1-15, 3-11)	3.2	< 0.1	0
CC[C@H](C)[C@H](NC(=O)[C@H](CC(C)(C)C)NC(=O)[C@H](CC(C)C)NC(=O)[C@H](Cc1c[nH]cn1)NC(=O)[C@@H]1CSSC[C@H](N)C(=O)N[C@@H](CO)C(=O)N[C@H]2CSSC[C@H](NC(=O)[C@H](CCC(=O)O)NC(=O)[C@H](CCCCN)NC(=O)[C@H](CC(=O)O)NC(=O)[C@H](CCSC)NC(=O)[C@H](CC(C)C)NC(=O)[C@H](CO)NC(=O)[C@H](CO)NC2=O)C(=O)N[C@@H](C(C)C)C(=O)N[C@@H](Cc2ccc(O)cc2)C(=O)N[C@@H](Cc2ccccc2)C(=O)N1)C(=O)N[C@H](C(=O)N[C@@H](Cc1c[nH]c2ccccc12)C(=O)O)[C@@H](C)CC [Example 45, [γ-Leu^18]-ET-1] (H-CSCSSLMDKECVYFCHL[tBuAla]IIW-OH; disulfide 1-15, 3-11)	1.0	< 0.1	3

More lines, main results first:

Receptor binding activity (Relative potency) (endothelin receptor)	SMILES	Constrictor activity (Relative potency) (porcine coronary artery)	Maximum Constriction (% 60 mM KCl) (porcine coronary artery)
5.0	CC[C@H](NC(=O)[C@H](CC(C)C)NC(=O)[C@H](Cc1c[nH]cn1)NC(=O)[C@@H]1CSSC[C@H](N)C(=O)N[C@@H](CO)C(=O)N[C@H]2CSSC[C@H](NC(=O)[C@H](CCC(=O)O)NC(=O)[C@H](CCCCN)NC(=O)[C@H](CC(=O)O)NC(=O)[C@H](CCSC)NC(=O)[C@H](CC(C)C)NC(=O)[C@H](CO)NC(=O)[C@H](CO)NC2=O)C(=O)N[C@@H](C(C)C)C(=O)N[C@@H](Cc2ccc(O)cc2)C(=O)N[C@@H](Cc2ccccc2)C(=O)N1)C(=O)N[C@H](C(=O)N[C@H](C(=O)N[C@@H](Cc1c[nH]c2ccccc12)C(=O)O)[C@@H](C)CC)[C@@H](C)CC [Example 30, [Abu^18]-ET-1] (H-CSCSSLMDKECVYFCHL[Abu]IIW-OH; disulfide 1-15, 3-11)	< 0.1	6
2.4	CCC[C@H](NC(=O)[C@H](CC(C)C)NC(=O)[C@H](Cc1c[nH]cn1)NC(=O)[C@@H]1CSSC[C@H](N)C(=O)N[C@@H](CO)C(=O)N[C@H]2CSSC[C@H](NC(=O)[C@H](CCC(=O)O)NC(=O)[C@H](CCCCN)NC(=O)[C@H](CC(=O)O)NC(=O)[C@H](CCSC)NC(=O)[C@H](CC(C)C)NC(=O)[C@H](CO)NC(=O)[C@H](CO)NC2=O)C(=O)N[C@@H](C(C)C)C(=O)N[C@@H](Cc2ccc(O)cc2)C(=O)N[C@@H](Cc2ccccc2)C(=O)N1)C(=O)N[C@H](C(=O)N[C@H](C(=O)N[C@@H](Cc1c[nH]c2ccccc12)C(=O)O)[C@@H](C)CC)[C@@H](C)CC [Example 31, [Nva^18]-ET-1] (H-CSCSSLMDKECVYFCHL[Nva]IIW-OH; disulfide 1-15, 3-11)	< 0.1	2
2.4	CC[C@H](C)[C@H](NC(=O)[C@H](Cc1ccccc1)NC(=O)[C@H](CC(C)C)NC(=O)[C@H](Cc1c[nH]cn1)NC(=O)[C@@H]1CSSC[C@H](N)C(=O)N[C@@H](CO)C(=O)N[C@H]2CSSC[C@H](NC(=O)[C@H](CCC(=O)O)NC(=O)[C@H](CCCCN)NC(=O)[C@H](CC(=O)O)NC(=O)[C@H](CCSC)NC(=O)[C@H](CC(C)C)NC(=O)[C@H](CO)NC(=O)[C@H](CO)NC2=O)C(=O)N[C@@H](C(C)C)C(=O)N[C@@H](Cc2ccc(O)cc2)C(=O)N[C@@H](Cc2ccccc2)C(=O)N1)C(=O)N[C@H](C(=O)N[C@@H](Cc1c[nH]c2ccccc12)C(=O)O)[C@@H](C)CC [Example 33, [Phe^18]-ET-1] (H-CSCSSLMDKECVYFCHLFIIW-OH; disulfide 1-15, 3-11)	< 0.1	0
20.9	CC[C@H](C)[C@H](NC(=O)[C@H](CO)NC(=O)[C@H](CC(C)C)NC(=O)[C@H](Cc1c[nH]cn1)NC(=O)[C@@H]1CSSC[C@H](N)C(=O)N[C@@H](CO)C(=O)N[C@H]2CSSC[C@H](NC(=O)[C@H](CCC(=O)O)NC(=O)[C@H](CCCCN)NC(=O)[C@H](CC(=O)O)NC(=O)[C@H](CCSC)NC(=O)[C@H](CC(C)C)NC(=O)[C@H](CO)NC(=O)[C@H](CO)NC2=O)C(=O)N[C@@H](C(C)C)C(=O)N[C@@H](Cc2ccc(O)cc2)C(=O)N[C@@H](Cc2ccccc2)C(=O)N1)C(=O)N[C@H](C(=O)N[C@@H](Cc1c[nH]c2ccccc12)C(=O)O)[C@@H](C)CC [Example 34, [Ser^18]-ET-1] (H-CSCSSLMDKECVYFCHLSIIW-OH; disulfide 1-15, 3-11)	18	79
3.2	CC[C@H](C)[C@H](NC(=O)[C@H](CCC(=O)O)NC(=O)[C@H](CC(C)C)NC(=O)[C@H](Cc1c[nH]cn1)NC(=O)[C@@H]1CSSC[C@H](N)C(=O)N[C@@H](CO)C(=O)N[C@H]2CSSC[C@H](NC(=O)[C@H](CCC(=O)O)NC(=O)[C@H](CCCCN)NC(=O)[C@H](CC(=O)O)NC(=O)[C@H](CCSC)NC(=O)[C@H](CC(C)C)NC(=O)[C@H](CO)NC(=O)[C@H](CO)NC2=O)C(=O)N[C@@H](C(C)C)C(=O)N[C@@H](Cc2ccc(O)cc2)C(=O)N[C@@H](Cc2ccccc2)C(=O)N1)C(=O)N[C@H](C(=O)N[C@@H](Cc1c[nH]c2ccccc12)C(=O)O)[C@@H](C)CC [Example 46, [Glu^18]-ET-1] (H-CSCSSLMDKECVYFCHLEIIW-OH; disulfide 1-15, 3-11)	< 0.1	6
